The test system of one test is PANC-1. In words: Antiproliferative activity against human PANC-1 cells assessed as reduction in cell viability incubated for 48 hrs by resazurin dye based cell titer-blue viability assay. The class given is functional. Conditions: PANC-1, 48 h.
A further test has as its system BXPC-3. Nature of the test: Antiproliferative activity against human BXPC-3 cells assessed as inhibition of cell proliferation treated for 72 hrs by resazurin dye-based fluorescence assay. The test is classed as functional. Conditions: BXPC-3, 72 h. Background: The colour change of resazurin is a common sign of viable cells or microbes.
Another test deals with Panc1005. Nature of the test: Antiproliferative activity against human Panc1005 cells assessed as reduction in cell growth incubated for 72 hrs by Cell titer-Glo luminescent cell viability assay. The class given is functional, cell-based. Conditions: Panc1005, 72 h. (In ATP-based viability assays light output follows the ATP content of the culture.)
For a further test, the system named is ASPC1. In words: Cytotoxicity against human ASPC1 cells assessed as inhibition of cell growth by SRB assay. The class given is functional, cell-based. On the technique in general: Sulforhodamine B stains cellular protein and so reports cell mass.
Another test relates to MDA-MB-231. Nature of the test: Antiproliferative activity against human MDA-MB-231 cells assessed as inhibition of cell viability measured after 72 hrs by MTT assay. The test is classed as functional, cell-based. Conditions: MDA-MB-231, 72 h.
The next test has as its system Huh-7. Nature of the test: Cytotoxicity against human Huh-7 cells assessed as reduction in cell viability incubated for 72 hrs by MTT assay. Conditions: Huh-7, 72 h. The class given is functional, cell-based.
Test [1] is described as follows: Antiproliferative activity against human HCCM-5 cells assessed as reduction in cell viability measured after 72 hrs by MTT assay. Conditions: HCCM-5, 72 h. The class given is functional, cell-based.
Test [2] is described as follows: Cytotoxicity against mouse Hepa-1 cells assessed as reduction in cell viability incubated for 24 hrs by MTS assay. The class given is functional, cell-based. Conditions: Hepa-1, 24 h.
A further test deals with MC-38. Nature of the test: Cytotoxicity against mouse MC-38 cells assessed as reduction in cell viability incubated for 24 hrs by MTS assay. Conditions: MC-38, 24 h. The class given is functional, cell-based.
In the next test the test system is Hepa 1-6. Nature of the test: Cytotoxicity against mouse Hepa1-6 cells assessed as inhibition of cell growth incubated for 24 hrs by MTT assay. The test is classed as functional, cell-based. Conditions: Hepa1-6, 24 h.
The test system of another test is ID8. Nature of the test: Cytotoxicity against mouse ID8 cells assessed as inhibition of cell viability measured after 24 hrs by MTT assay. The class given is functional, cell-based. Conditions: ID8, 24 h.
The test system of a further test is B16. Nature of the test: Cytotoxicity against mouse B16 cells assessed as inhibition of cell viability measured after 24 hrs by MTT assay. The class given is functional, cell-based. Conditions: B16, 24 h.
Test [3] concerns HCT-116. In words: Antiproliferative activity against human HCT-116 cells assessed as reduction in cell viability incubated for 48 hrs by WST-1 assay. The test is classed as functional, cell-based. Conditions: HCT-116, 48 h.
Test [4] has as its system HT-29. Nature of the test: Antiproliferative activity against human HT-29 cells assessed as reduction in cell viability measured after 48 hrs by WST-1 assay. The test is classed as functional, cell-based. Conditions: HT-29, 48 h.
Test [5] can be described thus: Antiproliferative activity against human CRC cells assessed as reduction in cell viability incubated for 48 hrs by MTT assay. The test is classed as functional, cell-based.
The test system of test [6] is HT-29. In words: Antiproliferative activity against human HT-29 cells assessed as inhibition of cell growth measured after 48 hrs by SRB assay. The class given is functional, cell-based. Conditions: HT-29, 48 h.
For test [7], the system named is HCT-116. Nature of the test: Antiproliferative activity against human HCT-116 cells assessed as reduction in cell growth incubated for 48 hrs by MTT assay. The class given is functional, cell-based. Conditions: HCT-116, 48 h.

pIC50: −log10 of the molar value. Values after ≈ are worked out from the molar mass of the structure shown.

`Oc1c([C@@H](Nc2ccccn2)c2cccc(Cl)c2Cl)ccc2cccnc12`: the pIC50 in the test with PANC-1, in the test with BXPC-3, in the test on Panc1005 and with ASPC1 was 6.23 in each case.
In the case of `N#Cc1ccc(C(=O)/C=C/c2ccccc2Oc2ccccc2C=O)cc1`, the pIC50 in the test on MDA-MB-231 was 4.98.
As for `C/C=C/C#CC#C/C=C/c1ccco1`, the results for the negative-log IC50 (pIC50) (in the test with Huh-7; in test [1]) were 4.65 and 4.22, respectively.
For the compound `CCOc1ccccc1-n1c(C(C)N2CCN(C(=O)COc3ccc(Cl)cc3)CC2)nc2ccccc2c1=O` (configuration not stated) [ERASTIN], the pIC50 in test [2] is 6.30; with MC-38 it was 6.30; in the test on Hepa 1-6 it was 6.30; in the test on ID8 it was 5.92; in the test with B16, 5.30.
Consider `C=C1CC[C@@H]2[C@](C)(CO)[C@H](O)CC[C@@]2(C)[C@@H]1C/C=C1/C(=O)OC[C@H]1O` [ANDROGRAPHOLIDE], for which the IC50 with HCT-116 [3] is 19 µg/mL (≈ 54.2 µM); in the test on HT-29 [4], 10 µg/mL (≈ 28.5 µM).
`CC(C)=CC/C=C(\C)[C@H]1CC[C@]2(C)[C@@H]1[C@H](O)C[C@@H]1[C@@]3(C)CC[C@H](O)C(C)(C)[C@@H]3[C@@H](O[C@@H]3O[C@H](CO)[C@@H](O)[C@H](O)[C@H]3O)C[C@]12C` [GINSENOSIDE RH4]: the values for the pIC50 (in test [5]; with HT-29 [6]; in the test on HCT-116 [7]) were 3.71, 3.71 and 3.75, respectively.

Usually pIC50 stands for the IC50 on a negative log10 scale, so that one unit is a factor of ten. As a reminder, the IC50 is the concentration that gives 50% inhibition.

Source of the values: ChEMBL document CHEMBL5528041, “Ferroptosis-Based Therapeutic Strategies toward Precision Medicine for Cancer” (J Med Chem, 2024).
